Laboratory results from patent publication US20180002319A1, “MACROCYCLIC PICOLINAMIDE COMPOUNDS WITH FUNGICIDAL ACTIVITY” (DOW AGROSCIENCES LLC, priority 2014, published 2018).

system: Zymoseptoria tritici; experiment: Leaf Blotch of Wheat (SEPTTR) fungicidal activity; assay type: in vivo; details: 24 h, Low Volume application, 121.5 g/H, wheat leaf blotch, 1 day protectant, read-out: SEPTTR disease control, 1DP (1 Day Protectant)
Procedure: Example A: Evaluation of Fungicidal Activity: Leaf Blotch of Wheat (Zymoseptoria tritici; Bayer Code […]) Technical grades of materials were dissolved in acetone, which were then mixed with nine volumes of H2O containing 110 ppm Triton X-100. The fungicide solutions were applied onto wheat seedlings using an automated booth sprayer to run-off. All sprayed plants were allowed to air dry prior to further handling. All fungicides were evaluated using the aforementioned method for their activity vs. all target diseases, unless stated otherwise. Wheat leaf blotch and brown rust activity were also evaluated using track spray applications, in which case the fungicides were formulated as EC formulations, containing 0.1% Trycol 5941 in the spray solutions. Wheat plants (variety Yuma) were grown from seed in a greenhouse in 50% mineral soil/50% soil-less Metro mix until the first leaf was fully emerged, with 7-10 seedlings per pot. These plants were inoculated with an aqueous spore suspension of Zymoseptoria tritici either prior to or after fungicide treatments. After inoculation the plants were kept in 100% relative humidity (one day in a dark dew chamber followed by two to three days in a lighted dew chamber at 20° C.) to permit spores to germinate and infect the leaf. The plants were then transferred to a greenhouse set at 20° C. for disease to develop. When disease symptoms were fully expressed on the 1st leaves of untreated plants, infection levels were assessed on a scale of 0 to 100 percent disease severity. Percent disease control was calculated using the ratio of disease severity on treated plants relative to untreated plants.

Row | Structure (SMILES) | pest or weed control at 121.5 g/ha
1 | CCCO[C@H]1CCCC[C@H](NC(=O)c2nccc(OC)c2OCOC(C)=O)C(=O)O[C@@H](C)[C@@H]1Oc1ccccc1 [Compound 23] | > 80%
2 | COc1ccnc(C(=O)N[C@H]2CCCC[C@H](Cc3ccccc3)[C@@H](OCC(C)C)[C@H](C)OC2=O)c1OCOC(C)=O [Compound 24] | > 80%
3 | COc1ccnc(C(=O)N[C@H]2CCCC[C@H](Oc3ccccc3)[C@@H](Oc3ccccc3)[C@H](C)OC2=O)c1OC(C)=O [Compound 25] | > 80%
4 | CCCO[C@H]1CCCC[C@H](NC(=O)c2nccc(OC)c2OC(C)=O)C(=O)O[C@@H](C)[C@@H]1Oc1ccccc1 [Compound 26] | > 80%
5 | COc1ccnc(C(=O)N[C@H]2CCCC[C@H](OC)[C@@H](OC)[C@H](C)OC2=O)c1OC(C)=O [Compound 27] | < 80%
6 | COc1ccnc(C(=O)N[C@H]2CCCC[C@H](OC)[C@@H](OCC(C)C)[C@H](C)OC2=O)c1OC(C)=O [Compound 28] | < 80%
7 | COc1ccnc(C(=O)N[C@H]2CCCC[C@@H]3OC(C)(C)O[C@H]3[C@H](C)OC2=O)c1OC(C)=O [Compound 29] | < 80%

same assay, conditions: 72 h, Low Volume application, 121.5 g/H, wheat leaf blotch, 3 day curative, read-out: SEPTTR disease control, 3DC (3 Day Curative)

Row | Structure (SMILES) | pest or weed control at 121.5 g/ha
8 | COc1ccnc(C(=O)N[C@H]2CCCC[C@H](OC)[C@@H](OC)[C@H](C)OC2=O)c1OCOC(C)=O [Compound 22] | < 80%
9 | CCCO[C@H]1CCCC[C@H](NC(=O)c2nccc(OC)c2OCOC(C)=O)C(=O)O[C@@H](C)[C@@H]1Oc1ccccc1 [Compound 23] | > 80%
10 | COc1ccnc(C(=O)N[C@H]2CCCC[C@H](Cc3ccccc3)[C@@H](OCC(C)C)[C@H](C)OC2=O)c1OCOC(C)=O [Compound 24] | > 80%
11 | COc1ccnc(C(=O)N[C@H]2CCCC[C@H](Oc3ccccc3)[C@@H](Oc3ccccc3)[C@H](C)OC2=O)c1OC(C)=O [Compound 25] | < 80%
12 | CCCO[C@H]1CCCC[C@H](NC(=O)c2nccc(OC)c2OC(C)=O)C(=O)O[C@@H](C)[C@@H]1Oc1ccccc1 [Compound 26] | > 80%
13 | COc1ccnc(C(=O)N[C@H]2CCCC[C@H](OC)[C@@H](OCC(C)C)[C@H](C)OC2=O)c1OC(C)=O [Compound 28] | > 80%
14 | COc1ccnc(C(=O)N[C@H]2CCCC[C@@H]3OC(C)(C)O[C@H]3[C@H](C)OC2=O)c1OC(C)=O [Compound 29] | > 80%

system: Puccinia triticina; experiment: Wheat Brown Rust (PUCCRT) fungicidal activity; assay type: in vivo; details: 24 h, High Volume application, 100 ppm, 1 day protectant, read-out: PUCCRT disease control, 1DP (1 Day Protectant)
Procedure: Technical grades of materials were dissolved in acetone, which were then mixed with nine volumes of H2O containing 110 ppm Triton X-100. The fungicide solutions were applied onto wheat seedlings using an automated booth sprayer to run-off. All sprayed plants were allowed to air dry prior to further handling. All fungicides were evaluated using the aforementioned method for their activity vs. all target diseases, unless stated otherwise. Wheat leaf blotch and brown rust activity were also evaluated using track spray applications, in which case the fungicides were formulated as EC formulations, containing 0.1% Trycol 5941 in the spray solutions. Wheat plants (variety Yuma) were grown from seed in a greenhouse in 50% mineral soil/50% soil-less Metro mix until the first leaf was fully emerged, with 7-10 seedlings per pot. These plants were inoculated with an aqueous spore suspension of Zymoseptoria tritici either prior to or after fungicide treatments. After inoculation the plants were kept in 100% relative humidity (one day in a dark dew chamber followed by two to three days in a lighted dew chamber at 20° C.) to permit spores to germinate and infect the leaf. The plants were then transferred to a greenhouse set at 20° C. for disease to develop. When disease symptoms were fully expressed on the 1st leaves of untreated plants, infection levels were assessed on a scale of 0 to 100 percent disease severity. Percent disease control was calculated using the ratio of disease severity on treated plants relative to untreated plants. Example B: Evaluation of Fungicidal Activity: Wheat Brown Rust (Puccinia triticina; Bayer Code PUCCRT) Wheat plants (variety Yuma) were grown from seed in a greenhouse in 50% mineral soil/50% soil-less Metro mix until the first leaf was fully emerged, with 7-10 seedlings per pot. These plants were inoculated with an aqueous spore suspension of Puccinia triticina either prior to or after fungicide treatments. After inoculation the plants were kept in a dark dew room at 22° C. with 100% relative humidity overnight to permit spores to germinate and infect the leaf. The plants were then transferred to a greenhouse set at 24° C. for disease to develop. Fungicide formulation, application and disease assessment followed the procedures as described in the Example A.

Row | Structure (SMILES) | pest or weed control at 100 ppm
15 | COc1ccnc(C(=O)N[C@H]2CCCC[C@H](OC)[C@@H](OC)[C@H](C)OC2=O)c1O [Compound 99] | > 80%

same assay, conditions: 24 h, Low Volume application, 121.5 g/H, 1 day protectant, read-out: PUCCRT disease control, 1DP (1 Day Protectant)

Row | Structure (SMILES) | pest or weed control at 121.5 g/ha
16 | COc1ccnc(C(=O)N[C@H]2CCCC[C@H](OC)[C@@H](OC)[C@H](C)OC2=O)c1OCOC(C)=O [Compound 22] | > 80%
17 | CCCO[C@H]1CCCC[C@H](NC(=O)c2nccc(OC)c2OCOC(C)=O)C(=O)O[C@@H](C)[C@@H]1Oc1ccccc1 [Compound 23] | > 80%
18 | COc1ccnc(C(=O)N[C@H]2CCCC[C@H](Cc3ccccc3)[C@@H](OCC(C)C)[C@H](C)OC2=O)c1OCOC(C)=O [Compound 24] | > 80%
19 | COc1ccnc(C(=O)N[C@H]2CCCC[C@H](Oc3ccccc3)[C@@H](Oc3ccccc3)[C@H](C)OC2=O)c1OC(C)=O [Compound 25] | > 80%
20 | CCCO[C@H]1CCCC[C@H](NC(=O)c2nccc(OC)c2OC(C)=O)C(=O)O[C@@H](C)[C@@H]1Oc1ccccc1 [Compound 26] | > 80%
21 | COc1ccnc(C(=O)N[C@H]2CCCC[C@H](OC)[C@@H](OC)[C@H](C)OC2=O)c1OC(C)=O [Compound 27] | > 80%
22 | COc1ccnc(C(=O)N[C@H]2CCCC[C@H](OC)[C@@H](OCC(C)C)[C@H](C)OC2=O)c1OC(C)=O [Compound 28] | > 80%
23 | COc1ccnc(C(=O)N[C@H]2CCCC[C@@H]3OC(C)(C)O[C@H]3[C@H](C)OC2=O)c1OC(C)=O [Compound 29] | > 80%
24 | COc1ccnc(C(=O)N[C@H]2CCCC[C@H](OC3CCCC3)[C@@H](OC)[C@H](C)OC2=O)c1OCOC(C)=O [Compound 35] | > 80%
25 | COc1ccnc(C(=O)N[C@H]2CCOC[C@H](OCC(C)C)[C@@H](OCC(C)C)[C@H](C)OC2=O)c1OCOC(C)=O [Compound 43] | > 80%

same assay, conditions: 72 h, Low Volume application, 121.5 g/H, 3 day curative, read-out: PUCCRT disease control, 3DC (3 Day Curative)

Row | Structure (SMILES) | pest or weed control at 121.5 g/ha
26 | COc1ccnc(C(=O)N[C@H]2CCCC[C@H](OC)[C@@H](OC)[C@H](C)OC2=O)c1OCOC(C)=O [Compound 22] | > 80%
27 | CCCO[C@H]1CCCC[C@H](NC(=O)c2nccc(OC)c2OCOC(C)=O)C(=O)O[C@@H](C)[C@@H]1Oc1ccccc1 [Compound 23] | > 80%
28 | COc1ccnc(C(=O)N[C@H]2CCCC[C@H](Cc3ccccc3)[C@@H](OCC(C)C)[C@H](C)OC2=O)c1OCOC(C)=O [Compound 24] | < 80%
29 | COc1ccnc(C(=O)N[C@H]2CCCC[C@H](Oc3ccccc3)[C@@H](Oc3ccccc3)[C@H](C)OC2=O)c1OC(C)=O [Compound 25] | < 80%
30 | CCCO[C@H]1CCCC[C@H](NC(=O)c2nccc(OC)c2OC(C)=O)C(=O)O[C@@H](C)[C@@H]1Oc1ccccc1 [Compound 26] | > 80%
31 | COc1ccnc(C(=O)N[C@H]2CCCC[C@H](OC)[C@@H](OC)[C@H](C)OC2=O)c1OC(C)=O [Compound 27] | > 80%
32 | COc1ccnc(C(=O)N[C@H]2CCCC[C@H](OC)[C@@H](OCC(C)C)[C@H](C)OC2=O)c1OC(C)=O [Compound 28] | > 80%
33 | COc1ccnc(C(=O)N[C@H]2CCCC[C@@H]3OC(C)(C)O[C@H]3[C@H](C)OC2=O)c1OC(C)=O [Compound 29] | > 80%
34 | COc1ccnc(C(=O)N[C@H]2CCCC[C@H](OC3CCCC3)[C@@H](OC)[C@H](C)OC2=O)c1OCOC(C)=O [Compound 35] | < 80%
35 | COc1ccnc(C(=O)N[C@H]2CCOC[C@H](OCC(C)C)[C@@H](OCC(C)C)[C@H](C)OC2=O)c1OCOC(C)=O [Compound 43] | < 80%
